± gives the expanded uncertainty stated by the source.
Legend:
[1] = Crystal; DTA
[2] = Molar enthalpy of transition or fusion; details: Crystal; DSC

CCOc1ccccc1C(N)=O [Ethenzamide]
Normal melting temperature [1]: 138.33 ± 0.39 °C | Molar enthalpy of transition or fusion [2]: 4.89 ± 0.222 kcal/mol

Source: the NIST ThermoML archive (doi:10.1016/j.fluid.2016.08.019)
